The target in experiment [1] is T1, human androgen receptor (Homo sapiens, UniProt P10275).
T1 construct: expressed in transfected cells
T1 sequence (P10275 1-920): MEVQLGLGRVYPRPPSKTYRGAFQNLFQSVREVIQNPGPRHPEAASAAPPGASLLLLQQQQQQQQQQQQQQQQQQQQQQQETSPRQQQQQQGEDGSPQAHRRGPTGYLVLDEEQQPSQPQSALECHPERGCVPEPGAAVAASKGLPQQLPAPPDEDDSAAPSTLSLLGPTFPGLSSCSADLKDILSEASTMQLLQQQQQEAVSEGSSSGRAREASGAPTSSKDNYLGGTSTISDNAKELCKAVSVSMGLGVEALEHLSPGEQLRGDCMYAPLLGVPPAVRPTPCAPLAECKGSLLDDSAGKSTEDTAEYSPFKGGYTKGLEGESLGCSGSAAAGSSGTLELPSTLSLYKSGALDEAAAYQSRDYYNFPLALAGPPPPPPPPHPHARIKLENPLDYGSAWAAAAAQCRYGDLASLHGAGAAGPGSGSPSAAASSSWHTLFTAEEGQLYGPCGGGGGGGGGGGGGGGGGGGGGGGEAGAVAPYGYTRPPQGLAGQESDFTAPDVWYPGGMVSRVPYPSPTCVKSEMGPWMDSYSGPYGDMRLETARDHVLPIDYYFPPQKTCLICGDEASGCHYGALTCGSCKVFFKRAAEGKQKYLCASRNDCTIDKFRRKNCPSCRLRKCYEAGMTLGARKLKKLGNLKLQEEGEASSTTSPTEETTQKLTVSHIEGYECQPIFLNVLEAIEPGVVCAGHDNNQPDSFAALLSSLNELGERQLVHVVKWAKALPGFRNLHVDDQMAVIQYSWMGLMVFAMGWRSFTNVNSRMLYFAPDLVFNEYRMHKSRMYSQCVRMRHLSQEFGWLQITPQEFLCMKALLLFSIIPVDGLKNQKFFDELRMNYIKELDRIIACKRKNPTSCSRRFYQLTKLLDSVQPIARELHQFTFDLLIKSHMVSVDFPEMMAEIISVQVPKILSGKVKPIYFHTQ
Description: Measurement of agonist effect on androgen receptor (reporter gene assay, 11A11B2 cells). Format: cell-based. The conditions noted are these: compound concentration showing a transcription activity of 5% (0.1 nmol/L DHT = 100%, assay medium alone = 0%), 48 hours. As to the method:
(§1) HeLa cells (purchased from Dai-Nippon Seiyaku K. K.) were cultured overnight in Dulbecco's Modified Eagle Medium containing no phenol red, but containing 3% charcoal-treated fetal bovine serum (hereafter referred to as DCC-FBS) (this medium is hereafter referred to as phenol-red-free DMEM). An MMTV-Luc-Hyg vector (reporter plasmid with mouse mammary tumor virus long terminal repeat, containing an androgen response element and a hygromycin resistance gene: a vector obtained by substituting a chloramphenicol acetyl transferease gene of a GM-CAT vector (A.T.C.C No. 67282) purchased from the A.T.C.C. with the firefly luciferase gene, and inserting a hygromycin resistance gene as a drug resistant gene), and pSG5-hAR-neo (human androgen receptor expression vector: a vector having an androgen receptor gene under the control of the SV40 promoter, and having a neomycin resistance gene inserted as a drug resistance gene) were transfected into the HeLa cells using an FuGENE™ 6 Transfection Reagent (obtained from Roche).
(§2) The clone cells thus obtained (11A11B2 cells) were maintained and propagated using DMEM containing 400 μg/mL neomycin, 200 μg/mL hygromycin and 10% FBS, and were propagated using phenol-red-free DMEM containing 10% DCC-FBS three to four days prior to the performance of an androgen receptor reporter gene assay.
The 11A11B2 cells were inoculated in a white clear-bottomed 96-well microplate (COSTAR) so that the cell concentration was 1.0×10^4/well, and were cultured overnight using phenol-red-free DMEM containing 3% DCC-FBS (hereafter referred to as the assay medium). Samples of the assay medium containing the compounds of the Examples and compounds of the Comparative Examples were added so that the final concentrations of the compounds of the Examples and compounds of the Comparative Examples were 1, 10, 100, 1,000 and 10,000 nmol/L), and the cells were cultured for 48 hours, after which the transcription activity value was measured. The transcription activity was measured using a Bright-Glo™ Luciferase Assay System (Promega).
The transcription activity rates of the compounds of the Examples were calculated from the transcription activity measured by the abovementioned method, with the transcription activity value obtained at 0.1 nmol/L DHT taken as 100%, and the transcription activity value in the case of the assay medium alone taken as 0%. The compound concentration showing a transcription activity of 5% (EC5 value) was calculated from a linear equation for two points on either side of 5%.
In general terms: Reporter assays use an easily measured gene product as a stand-in for the process of interest.

The target of experiment [2] is T1, human androgen receptor. Description: Investigation of antagonist effect on androgen receptor (reporter gene assay, 11A11B2 cells, with DHT). The format is cell-based. As to the method:
as §1, §2
The 11A11B2 cells were inoculated in a white clear-bottomed 96-well microplate (COSTAR) so that the cell concentration was 1.0×10^4/well, and were cultured overnight. The assay medium containing DHT was added so that the final concentration of DHT was 0.1 nmol/L, and samples of the assay medium containing the compounds of the Examples or compounds of the Comparative Examples were added so that the final concentrations of the compounds of the Examples or compounds of the Comparative Examples were 1, 10, 100, 1,000 and 10,000 nmol/L, respectively. After culturing for 48, hours, the transcription activity values were measured. The transcription activity was measured using a Bright-Glo™ Luciferase Assay System (Promega).
The transcription activity rates of the compounds of the Examples were calculated from the transcription activity measured by the abovementioned method, with the transcription activity value obtained at 0.1 nmol/L DHT taken as 100%, and the transcription activity value in the case of the assay, medium alone taken as 0%.

[3] abbreviates: with 0.1 nmol/L DHT, transcription activity rate of Test Example 1 subtracted, 11A11B2 cells, 48 hours, read-out: IC50.

Where two headings read alike, the source gives them in different places.

On human androgen receptor [1], `CCCS(=O)(=O)N1CCC(N2C(=O)N(c3ccc(C#N)c(Cl)c3C)C(=O)C2(C)C)CC1` [Example 11, 4-[3-(1-propanesulfonylpiperidin-4-yl)-4,4-dimethyl-2,5-dioxoimidazolidin-1-yl]-2-chloro-3-methylbenzonitrile] showed an EC5 greater than 10 µM. Besides, the IC50 (usually the concentration at which inhibition is half-maximal) on human androgen receptor [2] (setting [3]) came out at 300 nM.
As to `CCC(=O)N1CCC(N2C(=O)N(c3ccc(C#N)c(Cl)c3C)C(=O)C2(C)C)CC1` [Example 12, 4-[3-(1-propionylpiperidin-4-yl)-4,4-dimethyl-2,5-dioxoimidazolidin-1-yl]-2-chloro-3-methylbenzonitrile], the EC5 at human androgen receptor [1] is greater than 10 µM. Also, the 50% inhibitory concentration (IC50) on human androgen receptor [2] (setting [3]) was 700 nM.
For the compound `CC(=O)Nc1nc2cc(N3C(=S)N(c4ccc(C#N)c(Cl)c4)C(=O)C3(C)C)ccc2s1` [Example 16, 4-[3-(2-acetylaminobenzothiazol-5-yl)-4,4-dimethyl-5-oxo-2-thioxoimidazolidin-1-yl]-2-chlorobenzonitrile], the EC5 at human androgen receptor [1] was determined as 3 µM. The compound further showed an IC50 against human androgen receptor [2] of 40 nM.
For `CC1(C)C(=O)N(c2ccc(C#N)c(C(F)(F)F)c2)C(=S)N1c1ccc2sc(NC(N)=O)nc2c1` [Example 18, {5-[3-(4-cyano-3-trifluoromethylphenyl)-5,5-dimethyl-4-oxo-2-thioxoimidazolidin-1-yl]-benzothiazol-2-yl}urea] the same measures were greater than 10 µM and 100 nM.
`COc1cc(N2C(=O)C(C)(C)N(c3ccc4sc(NC(N)=O)nc4c3)C2=S)ccc1C#N` [Example 19, {5-[3-(4-cyano-3-methoxyphenyl)-5,5-dimethyl-4-oxo-2-thioxoimidazolidin-1-yl]-benzothiazol-2-yl}urea]: at human androgen receptor [1], the EC5 was greater than 10 µM. For the same compound, the IC50 on human androgen receptor [2] (setting [3]) came to 200 nM.
`CC1(C)C(=O)N(c2ccc(C#N)c(Cl)c2)C(=S)N1c1ccc2sc(NC(N)=O)nc2c1` [Example 20, {5-[3-(4-cyano-3-chlorophenyl)-5,5-dimethyl-4-oxo-2-thioxoimidazolidin-1-yl]-benzothiazol-2-yl}urea] registered an EC5 on human androgen receptor [1] greater than 10 µM. In addition, at human androgen receptor [2], the midpoint of inhibition, the IC50, lay at 100 nM.
As to `CC1(C)C(=O)N(c2ccc(C#N)c(C(F)(F)F)c2)C(=O)N1c1ccc(NC(=O)CN2CCNCC2)c(Cl)c1` [Example 21, N-{2-chloro-4-[3-(4-cyano-3-trifluoromethylphenyl)-5,5-dimethyl-2,4-dioxoimidazolidin-1-yl]-phenyl}-2-piperazin-1-ylacetamide], on human androgen receptor [1], the EC5 was greater than 10 µM. The IC50 at human androgen receptor [2] (setting [3]) stood at 500 nM.
The compound `CC(=O)Nc1cc(N2C(=S)N(c3ccc(C#N)c(C(F)(F)F)c3)C(=O)C2(C)C)ccc1Cl` [Example 22, 4-[3-(3-acetylamino-4-chlorophenyl)-4,4-dimethyl-5-oxo-2-thioxoimidazolidin-1-yl]-2-trifluoromethylbenzonitrile] yielded an EC5 on human androgen receptor [1] greater than 10 µM. For the same compound, at human androgen receptor [2] (setting [3]), the IC50 amounted to 200 nM.
Compound `CC(C)OC(=O)Nc1cc(N2C(=O)N(c3ccc(C#N)c(C(F)(F)F)c3)C(=O)C2(C)C)ccc1Cl` [Example 23, 4-[3-(3-isopropoxycarbonylamino-4-chlorophenyl)-4,4-dimethyl-2,5-dioxoimidazolidin-1-yl]-2-trifluoromethylbenzonitrile] displayed an EC5 on human androgen receptor [1] greater than 10 µM. At human androgen receptor [2] (setting [3]), the IC50 is 500 nM.
Turning to `CCOC(=O)Nc1cc(N2C(=O)N(c3ccc(C#N)c(OC)c3)C(=O)C2(C)C)ccc1Cl` [Example 24, 4-[3-(3-ethoxycarbonylamino-4-chlorophenyl)-4,4-dimethyl-2,5-dioxoimidazolidin-1-yl]-2-methoxybenzonitrile], the EC5 on human androgen receptor [1] is greater than 10 µM. The half-maximal inhibitory concentration (IC50) at human androgen receptor [2] (setting [3]) was determined as 200 nM.
In turn, `COc1cc(N2C(=O)N(c3ccc(Cl)c(NC(=O)OC(C)C)c3)C(C)(C)C2=O)ccc1C#N` [Example 25, 4-[3-(3-isopropoxycarbonylamino-4-chlorophenyl)-4,4-dimethyl-2,5-dioxoimidazolidin-1-yl]-2-methoxybenzonitrile] yielded an EC5 at human androgen receptor [1] greater than 10 µM. In addition, the IC50 at human androgen receptor [2] (setting [3]) was 400 nM.
For the compound `CCCOC(=O)Nc1cc(N2C(=O)N(c3ccc(C#N)c(OC)c3)C(=O)C2(C)C)ccc1Cl` [Example 26, 4-[3-(3-n-propoxycarbonylamino-4-chlorophenyl)-4,4-dimethyl-2,5-dioxoimidazolidin-1-yl]-2-methoxybenzonitrile], the EC5 at human androgen receptor [1] was greater than 10 µM. In addition, on human androgen receptor [2] (setting [3]), the IC50 stood at 200 nM.
The compound `CC1(C)C(=O)N(c2ccc(C#N)c(C(F)(F)F)c2)C(=O)N1c1ccc(Cl)c(NC(=O)OCCCO)c1` [Example 27, {2-chloro-5-[3-(4-cyano-3-trifluoromethylphenyl)-5,5-dimethyl-2,4-dioxoimidazolidin-1-yl]phenyl}-carbamic acid 3-hydroxypropyl ester] displayed an EC5 on human androgen receptor [1] greater than 10 µM. Also, the IC50 on human androgen receptor [2] (setting [3]) was 400 nM.
For the compound `CN(C)CCOC(=O)Nc1cc(N2C(=O)N(c3ccc(C#N)c(C(F)(F)F)c3)C(=O)C2(C)C)ccc1Cl` [Example 28, {2-chloro-5-[3-(4-cyano-3-trifluoromethylphenyl)-5,5-dimethyl-2,4-dioxoimidazolidin-1-yl]phenyl}-carbamic acid 2-dimethylaminoethyl ester], the EC5 on human androgen receptor [1] is greater than 10 µM. For the same compound, at human androgen receptor [2] (setting [3]), the IC50 worked out at 500 nM.
On human androgen receptor [1], `CN1CCN(CCOC(=O)Nc2cc(N3C(=O)N(c4ccc(C#N)c(C(F)(F)F)c4)C(=O)C3(C)C)ccc2Cl)CC1` [Example 29, {2-chloro-5-[3-(4-cyano-3-trifluoromethylphenyl)-5,5-dimethyl-2,4-dioxoimidazolidin-1-yl]phenyl}-carbamic acid 2-(4-methylpiperazin-1-yl)ethyl ester] yielded an EC5 greater than 10 µM. At human androgen receptor [2] (setting [3]), the IC50 was 500 nM.
In turn, `COC(=O)Nc1cc(N2C(=O)N(c3ccc(C#N)c(OC)c3)C(=O)C2(C)C)ccc1F` [Example 30] displayed an EC5 on human androgen receptor [1] greater than 10 µM. On human androgen receptor [2] (setting [3]), the IC50 was 500 nM.
At human androgen receptor [1], `CN(C)CCOC(=O)Nc1cc(N2C(=O)N(c3ccc(C#N)c(Cl)c3)C(=O)C2(C)C)ccc1Cl` [Example 31, {2-chloro-5-[3-(4-cyano-3-chlorophenyl)-5,5-dimethyl-2,4-dioxoimidazolidin-1-yl]phenyl}-carbamic acid 2-dimethylaminoethyl ester] came in with an EC5 greater than 10 µM. Besides, at human androgen receptor [2], the IC50 worked out at 600 nM.

For the origin of these results see patent US8470829B2 (priority 2004, dated 2013).
